pKd: −log10 of the molar value. Structures can show the parent of a compound that is named as a salt. Where two headings read alike, the source gives them in different places.
How the values were obtained:
Experiment in all cases: Kinase binding assay (kinase-tagged T7 phage, qPCR), Kd
[1] = molecular target: T1, FGFR1 (Homo sapiens, UniProt P11362); conditions: for Kd: read-out: FGFR1 (Kd nM)
T1 construct: made in house; host or cells: E. coli derived from BL21, infected with T7 phage

[2] = molecular target: T2, FGFR2 (Homo sapiens, UniProt P21802); conditions: for Kd: read-out: FGFR2 (Kd nM)
T2 construct: made in house; host or cells: E. coli derived from BL21, infected with T7 phage

[3] = molecular target: T3, FGFR4 (Homo sapiens, UniProt P22455); conditions: for Kd: read-out: FGFR4 (Kd nM)
T3 construct: made in house; host or cells: E. coli derived from BL21, infected with T7 phage

[4] = molecular target: T4, FGFR3 (Homo sapiens, UniProt P22607); conditions: for Kd: read-out: FGFR3 (Kd nM)
T4 construct: made in house; host or cells: E. coli derived from BL21, infected with T7 phage
T4 sequence (P22607 23-806): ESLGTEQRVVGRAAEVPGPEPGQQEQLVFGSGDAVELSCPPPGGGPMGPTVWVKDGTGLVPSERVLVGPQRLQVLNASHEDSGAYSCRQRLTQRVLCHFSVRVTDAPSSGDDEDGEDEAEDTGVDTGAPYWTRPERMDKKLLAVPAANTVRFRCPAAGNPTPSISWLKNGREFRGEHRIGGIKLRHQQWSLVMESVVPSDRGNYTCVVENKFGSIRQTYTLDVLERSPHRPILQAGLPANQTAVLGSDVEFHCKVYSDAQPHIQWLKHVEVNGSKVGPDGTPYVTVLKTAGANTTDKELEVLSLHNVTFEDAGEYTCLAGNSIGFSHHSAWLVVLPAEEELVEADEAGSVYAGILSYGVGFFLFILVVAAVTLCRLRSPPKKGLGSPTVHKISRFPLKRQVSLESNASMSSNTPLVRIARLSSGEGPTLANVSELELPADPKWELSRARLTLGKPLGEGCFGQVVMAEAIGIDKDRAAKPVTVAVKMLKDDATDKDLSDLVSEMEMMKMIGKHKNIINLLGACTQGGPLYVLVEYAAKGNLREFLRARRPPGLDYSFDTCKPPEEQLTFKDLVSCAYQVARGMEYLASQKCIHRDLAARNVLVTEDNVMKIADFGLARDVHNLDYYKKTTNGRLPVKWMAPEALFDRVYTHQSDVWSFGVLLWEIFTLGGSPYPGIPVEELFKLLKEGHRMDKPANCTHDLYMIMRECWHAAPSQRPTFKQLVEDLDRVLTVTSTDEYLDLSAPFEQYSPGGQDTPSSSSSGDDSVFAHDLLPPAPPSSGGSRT

T3 sequence (P22455 22-802): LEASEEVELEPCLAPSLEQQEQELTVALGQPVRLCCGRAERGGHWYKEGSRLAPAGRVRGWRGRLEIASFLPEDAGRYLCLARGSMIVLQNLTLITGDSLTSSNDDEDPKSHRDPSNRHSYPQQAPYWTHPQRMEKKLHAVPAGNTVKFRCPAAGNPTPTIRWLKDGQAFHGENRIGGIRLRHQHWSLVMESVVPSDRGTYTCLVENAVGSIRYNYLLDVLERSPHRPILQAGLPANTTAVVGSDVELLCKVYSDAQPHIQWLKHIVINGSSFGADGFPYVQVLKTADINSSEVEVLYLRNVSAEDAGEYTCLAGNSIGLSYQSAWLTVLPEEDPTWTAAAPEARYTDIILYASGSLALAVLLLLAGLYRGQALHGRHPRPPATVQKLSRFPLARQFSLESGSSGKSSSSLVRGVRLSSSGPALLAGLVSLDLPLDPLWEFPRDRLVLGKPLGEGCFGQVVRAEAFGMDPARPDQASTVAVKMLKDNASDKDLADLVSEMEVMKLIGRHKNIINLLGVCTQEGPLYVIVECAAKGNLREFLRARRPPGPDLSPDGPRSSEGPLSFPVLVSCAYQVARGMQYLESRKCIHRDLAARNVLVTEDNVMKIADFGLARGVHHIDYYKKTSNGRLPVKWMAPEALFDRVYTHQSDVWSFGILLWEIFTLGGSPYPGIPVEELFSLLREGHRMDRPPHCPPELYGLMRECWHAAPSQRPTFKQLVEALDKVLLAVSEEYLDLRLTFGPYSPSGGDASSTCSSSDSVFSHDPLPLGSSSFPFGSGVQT
T1 sequence (P11362 22-822): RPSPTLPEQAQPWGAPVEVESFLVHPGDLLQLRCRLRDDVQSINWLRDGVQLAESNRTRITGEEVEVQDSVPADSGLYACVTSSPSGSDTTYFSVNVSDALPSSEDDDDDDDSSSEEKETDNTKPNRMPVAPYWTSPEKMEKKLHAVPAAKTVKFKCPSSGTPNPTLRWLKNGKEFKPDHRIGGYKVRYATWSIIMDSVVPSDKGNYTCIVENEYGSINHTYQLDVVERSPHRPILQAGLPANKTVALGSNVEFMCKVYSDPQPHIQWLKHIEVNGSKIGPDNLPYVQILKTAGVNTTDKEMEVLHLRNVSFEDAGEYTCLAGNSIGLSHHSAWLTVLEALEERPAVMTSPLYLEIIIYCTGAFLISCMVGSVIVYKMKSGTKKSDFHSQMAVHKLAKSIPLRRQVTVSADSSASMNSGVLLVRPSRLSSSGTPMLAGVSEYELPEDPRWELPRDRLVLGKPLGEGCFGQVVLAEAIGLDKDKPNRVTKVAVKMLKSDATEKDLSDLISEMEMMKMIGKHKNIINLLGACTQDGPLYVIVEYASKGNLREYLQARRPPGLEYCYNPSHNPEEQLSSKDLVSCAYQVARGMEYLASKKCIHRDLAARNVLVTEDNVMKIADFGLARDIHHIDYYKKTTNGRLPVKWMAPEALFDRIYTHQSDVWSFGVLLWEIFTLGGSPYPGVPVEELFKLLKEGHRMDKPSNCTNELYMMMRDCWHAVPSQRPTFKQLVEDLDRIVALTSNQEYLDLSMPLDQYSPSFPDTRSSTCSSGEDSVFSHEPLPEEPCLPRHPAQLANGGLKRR
T2 sequence (P21802 22-821): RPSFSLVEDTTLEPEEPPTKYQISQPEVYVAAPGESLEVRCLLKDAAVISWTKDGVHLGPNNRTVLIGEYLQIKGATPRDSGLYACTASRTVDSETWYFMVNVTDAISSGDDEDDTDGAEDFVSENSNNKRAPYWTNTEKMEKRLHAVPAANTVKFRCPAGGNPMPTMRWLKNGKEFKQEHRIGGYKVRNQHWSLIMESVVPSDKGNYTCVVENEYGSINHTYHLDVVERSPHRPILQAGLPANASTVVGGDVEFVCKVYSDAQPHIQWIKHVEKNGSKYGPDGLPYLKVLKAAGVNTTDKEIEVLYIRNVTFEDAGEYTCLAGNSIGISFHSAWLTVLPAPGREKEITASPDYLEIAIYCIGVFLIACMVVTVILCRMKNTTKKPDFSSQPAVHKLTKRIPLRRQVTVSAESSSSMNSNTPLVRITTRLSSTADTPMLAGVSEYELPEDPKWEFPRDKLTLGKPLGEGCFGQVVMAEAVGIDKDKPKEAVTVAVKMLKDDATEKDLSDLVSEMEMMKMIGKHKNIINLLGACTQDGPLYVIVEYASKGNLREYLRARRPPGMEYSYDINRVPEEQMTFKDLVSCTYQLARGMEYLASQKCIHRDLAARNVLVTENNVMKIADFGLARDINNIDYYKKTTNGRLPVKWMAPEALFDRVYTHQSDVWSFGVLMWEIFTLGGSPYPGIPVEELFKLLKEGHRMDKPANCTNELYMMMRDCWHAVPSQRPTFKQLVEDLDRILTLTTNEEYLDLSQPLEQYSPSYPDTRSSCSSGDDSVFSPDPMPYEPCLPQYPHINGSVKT

| Compound | Kd [1] [nM] | Kd [2] [nM] | Kd [3] [nM] | Kd [4] [nM] | pKd [1] | pKd [2] | pKd [3] | pKd [4] |
| --- | --- | --- | --- | --- | --- | --- | --- | --- |
| Cc1cnnc(C)c1[C@@H](C)Oc1ccc2[nH]nc(-c3cc(C#N)cc(N4CCOCC4)c3)c2c1 [Example 64, 3-[5-[(1R)-1-(3,5-Dimethylpyridazin-4-yl)ethoxy]-1H-indazol-3-yl]-5-morpholino-benzonitrile] | > 1000 | > 1000 | 100 to 250 | > 1000 |  |  |  |  |
| C[C@@H](Oc1ccc2[nH]nc(-c3cnc(N[C@@H]4CCOC4)c(C#N)c3)c2c1)c1c(Cl)cncc1Cl [Example 130, 5-(5-((R)-1-(3,5-dichloropyridin-4-yl)ethoxy)-1H-indazol-3-yl)-2-(((R)-tetrahydrofuran-3-yl)amino)nicotinonitrile] | 0.1 to 100 | 0.1 to 100 | 0.1 to 100 | 0.1 to 100 |  |  |  |  |
| C[C@@H](Oc1ccc2[nH]nc(-c3ccc(NC(=O)N4CCC(O)C4)nc3)c2c1)c1c(Cl)cncc1Cl (stereo partly drawn) [Example 24, N-[5-[5-[(1R)-1-(3,5-dichloro-4-pyridyl)ethoxy]-1H-indazol-3-yl]-2-pyridyl]-3-hydroxy-pyrrolidine-1-carboxamide] | 0.1 to 100 | 0.1 to 100 | 0.1 to 100 | 0.1 to 100 |  |  |  |  |
| C[C@@H](Oc1ccc2[nH]nc(-c3cnc4c(c3)N(CC(F)(F)F)CCO4)c2c1)c1c(Cl)cncc1Cl [Example 139, (R)-7-(5-(1-(3,5-dichloropyridin-4-yl)ethoxy)-1H-indazol-3-yl)-1-(2,2,2-trifluoroethyl)-2,3-dihydro-1H-pyrido[2,3-b][1,4]oxazine 2,2,2-trifluoroacetate] | > 1000 | > 1000 | > 1000 | > 1000 |  |  |  |  |
| C[C@@H](Oc1ccc2[nH]nc(-c3ccnc(NCCO)c3)c2c1)c1c(Cl)cncc1Cl [Example 36, 2-[[4-[5-[(1R)-1-(3,5-Dichloro-4-pyridyl)ethoxy]-1H-indazol-3-yl]-2-pyridyl]amino]ethanol] | 0.1 to 100 | 0.1 to 100 | 0.1 to 100 | 0.1 to 100 |  |  |  |  |
| COc1cc(-c2n[nH]c3ccc(O[C@H](C)c4c(Cl)cnc(F)c4Cl)cc23)cc2c1OC1(CCN(C(C)C)CC1)OC2 [Example 123, (R)-6-(5-(1-(3,5-dichloro-2-fluoropyridin-4-yl)ethoxy)-1H-indazol-3-yl)-1′-isopropyl-8-methoxy-4H-spiro[benzo[d][1,3]dioxine-2,4′-piperidine]] | 250 to 1000 | 250 to 1000 | 0.1 to 100 | 0.1 to 100 |  |  |  |  |
| C[C@@H](Oc1ccc2[nH]nc(-c3cnc(NC4CCOCC4)c(C#N)c3)c2c1)c1c(Cl)cncc1Cl [Example 132, (R)-5-(5-(1-(3,5-dichloropyridin-4-yl)ethoxy)-1H-indazol-3-yl)-2-((tetrahydro-2H-pyran-4-yl)amino)nicotinonitrile] | 0.1 to 100 | 0.1 to 100 | 0.1 to 100 | 0.1 to 100 |  |  |  |  |
| COc1cc(-c2n[nH]c3ccc(O[C@H](C)c4c(Cl)cncc4Cl)cc23)cc(C#N)c1OC [Example 81, 5-[5-[(1R)-1-(3,5-dichloro-4-pyridyl)ethoxy]-1H-indazol-3-yl]-2,3-dimethoxy-benzonitrile] | > 1000 | > 1000 | 0.1 to 100 | > 1000 |  |  |  |  |
| COc1cc(NCc2ccccn2)cc(-c2n[nH]c3ccc(O[C@H](C)c4c(Cl)cncc4Cl)cc23)c1 [Example 46, 3-[5-[(1R)-1-(3,5-dichloro-4-pyridyl)ethoxy]-1H-indazol-3-yl]-5-methoxy-N-(2-pyridyl-methyl)aniline] | > 1000 | > 1000 | 0.1 to 100 | > 1000 |  |  |  |  |
| COc1cc(OC)cc(-c2n[nH]c3ccc(O[C@@H](C)c4c(C)cnnc4C)cc23)c1 [Example 58, 3-(3,5-dimethoxyphenyl)-5-[(1S)-1-(3,5-dimethylpyridazin-4-yl)ethoxy]-1H-indazole] | 0.1 to 100 | 0.1 to 100 | 0.1 to 100 | 0.1 to 100 |  |  |  |  |
| C[C@@H](Oc1ccc2[nH]nc(-c3ccc(S(C)(=O)=O)nc3)c2c1)c1c(Cl)cncc1Cl [Example 10, (R)-5-(1-(3,5-Dichloropyridin-4-yl)ethoxy)-3-(6-(methylsulfonyl)pyridin-3-yl)-1H-indazole] | 0.1 to 100 | 0.1 to 100 | 0.1 to 100 | 0.1 to 100 |  |  |  |  |
| COc1cc(-c2n[nH]c3ccc(O[C@H](C)c4c(C)cnnc4C)cc23)cc(C#N)c1OC [Example 76, 5-[5-[(1R)-1-(3,5-dimethylpyridazin-4-yl)ethoxy]-1H-indazol-3-yl]-2,3-dimethoxy-benzonitrile] | 250 to 1000 | > 1000 | 0.1 to 100 | 100 to 250 |  |  |  |  |
| C[C@@H](Oc1ccc2[nH]nc(-c3cnc4c(c3)N(CC(F)F)CCO4)c2c1)c1c(Cl)cncc1Cl [Example 142, (R)-7-(5-(1-(3,5-dichloropyridin-4-yl)ethoxy)-1H-indazol-3-yl)-1-(2,2-difluoroethyl)-2,3-dihydro-1H-pyrido[2,3-b][1,4]oxazine] | > 1000 | > 1000 | 250 to 1000 | > 1000 |  |  |  |  |
| CCN1CCC2(CC1)CC(=O)c1cc(-c3n[nH]c4ccc(O[C@H](C)c5c(C)cnnc5C)cc34)ccc1O2 [Example 99, (R)-6-(5-(1-(3,5-dimethylpyridazin-4-yl)ethoxy)-1H-indazol-3-yl)-1′-ethylspiro[chroman-2,4′-piperidin]-4-one] | 0.1 to 100 | 0.1 to 100 | 0.1 to 100 | 0.1 to 100 |  |  |  |  |
| COc1cc(OC(C)C)cc(-c2n[nH]c3ccc(O[C@H](C)c4c(C)cnnc4C)cc23)c1 [Example 60, 5-[(1R)-1-(3,5-dimethylpyridazin-4-yl)ethoxy]-3-(3-isopropoxy-5-methoxy-phenyl)-1H-indazole] | > 1000 | > 1000 | > 1000 | > 1000 |  |  |  |  |
| CC(C)N1CCC(Oc2ccc(-c3n[nH]c4ccc(O[C@H](C)c5c(Cl)cncc5Cl)cc34)cc2C#N)CC1 [Example 124, 5-[5-[(1R)-1-(3,5-dichloro-4-pyridyl)ethoxy]-1H-indazol-3-yl]-2-[(1-isopropyl-4-piperidyl)oxy]benzonitrile] | 0.1 to 100 | 0.1 to 100 | 0.1 to 100 | 0.1 to 100 |  |  |  |  |
| C[C@@H](Oc1cc2c(-c3cnc4c(c3)N(S(C)(=O)=O)CCO4)n[nH]c2cc1Cl)c1c(Cl)cncc1Cl [Example 145, 7-[6-chloro-5-[(1R)-1-(3,5-dichloro-4-pyridyl)ethoxy]-1H-indazol-3-yl]-1-methylsulfonyl-2,3-dihydropyrido[2,3-b][1,4]oxazine] | > 1000 | > 1000 | 0.1 to 100 | > 1000 |  |  |  |  |
| Cc1cnnc(C)c1[C@H](C)Oc1ccc2[nH]nc(-c3cc(C#N)cc(N4CCOCC4)c3)c2c1 [Example 65, 3-[5-[(1S)-1-(3,5-Dimethylpyridazin-4-yl)ethoxy]-1H-indazol-3-yl]-5-morpholino-benzonitrile] | > 1000 | > 1000 | > 1000 | > 1000 |  |  |  |  |
| C[C@@H](Oc1ccc2[nH]nc(-c3ccc4c(c3)COC3(CCNCC3)O4)c2c1)c1c(Cl)cncc1Cl [Example 94, (R)-6-(5-(1-(3,5-Dichloropyridin-4-yl)ethoxy)-1H-indazol-3-yl)-4H-spiro[benzo[d][1,3]dioxine-2,4′-piperidine] TFA salt] |  |  |  |  | 7.00 to 10.00 | 7.00 to 10.00 | 7.00 to 10.00 | 7.00 to 10.00 |
